Assay results as given in PubChem BioAssay (NCI).
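Where inhibition never reached the appropriate level, the endpoint shown equals the highest concentration tested. Otherwise, values were interpolated linearly from a five-concentration, 48-hour dose response in 96-well plates. TGI: total growth inhibition.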

How the values were obtained:
Assay in all cases: DTP human tumour cell line panel, 48 h
K-562 leukemia = test system: K-562 leukemia
HL-60(TB) leukemia = test system: HL-60(TB) leukemia
MALME-3M melanoma = test system: MALME-3M melanoma
SF-268 CNS = test system: SF-268 CNS
UO-31 renal = test system: UO-31 renal
MCF7 breast = test system: MCF7 breast
BT-549 breast = test system: BT-549 breast
HS 578T breast = test system: HS 578T breast
TK-10 renal = test system: TK-10 renal
SK-OV-3 ovarian = test system: SK-OV-3 ovarian

Row | SMILES | TGI (K-562 leukemia) [µM] | TGI (HL-60(TB) leukemia) [µM] | TGI (MALME-3M melanoma) [µM] | TGI (SF-268 CNS) [µM] | TGI (UO-31 renal) [µM] | TGI (MCF7 breast) [µM] | TGI (BT-549 breast) [µM] | TGI (HS 578T breast) [µM] | TGI (TK-10 renal) [µM] | TGI (SK-OV-3 ovarian) [µM]
1 | NC(N)=NS(=O)(=O)c1ccc(NNc2c3ccccc3nc3c(C(=O)Nc4ccc(S(=O)(=O)Nc5ncccn5)cc4)cccc23)cc1 | > 100 | > 100 | 67.8 | > 100 | 83.7 | > 100 |  |  |  | 
2 | CC1(C)/C(=N\NC(N)=O)C2CCC1C2 (stereo unspecified) | > 100 | > 100 | > 100 | > 100 | > 100 | > 100 | > 100 | > 100 | > 100 | > 100
3 | COC(=O)c1c(O)ccc2c1c1c(n2Cc2cc(OC)cc(OC)c2)C(=O)c2ccccc2C1 | > 100 | > 100 | > 100 | > 100 | > 100 | > 100 | > 100 | > 100 | > 100 | > 100
4 | COc1cccc(CCNC(=O)Cc2ccccc2CCO)c1 | > 100 | > 100 |  | > 100 | > 100 | > 100 | > 100 | > 100 | > 100 | > 100
5 | Cc1ccc(-c2c(C#N)c(-c3ccc(C)cc3)n(NS(=O)(=O)c3ccccc3)c(=O)c2C#N)cc1 | > 100 |  | > 100 | > 100 |  | > 100 | > 100 | > 100 | > 100 | > 100
6 | Cc1ccc(S(=O)(=O)c2[nH]cc(/C(=C\C3CCCCC3)[N+](=O)[O-])c2C2CCCCC2)cc1 | 0.923 |  | 1.62 | 1.84 | 1.32 | > 100 | 0.813 |  | 2.08 | > 26.9
7 | O=c1oc2ccccc2cc1-c1cc2ccccn2c1 | > 100 | > 100 |  | > 100 | > 100 | > 100 | > 100 | > 100 | > 100 | > 100
8 | O=[N+]([O-])C[C@@]12O[C@]3(O)C4C5CC(C6C5C3C61)C42 (stereo partly specified) | > 100 | > 100 | > 100 | > 100 | > 100 | > 100 | > 100 | > 100 | > 100 | > 100
9 | CC(C)NC(=O)OCc1c(COC(=O)NC(C)C)c(-c2cc[n+](COC(=O)C3CC3)cc2)n2c1CCC2 | > 100 | > 100 | > 100 | > 100 | > 100 | > 100 | > 100 | > 100 | > 100 | > 100
10 | O=C(N/N=C(\c1ccccc1)c1ccccn1)NC1CCCCC1 | > 100 |  | > 100 | > 100 | > 100 |  | > 100 | > 100 | > 100 | > 100
11 | COc1cc2c(cc1OC)C(CC1=C(c3ccccc3)CN3CCc4cc(OC)c(OC)cc4C3C1)NCC2 (stereo unspecified) | 30.1 | 28.6 | 35.1 | 37.5 | 23.4 |  |  |  | 32.7 | 43.9
12 | O=[N+]([O-])c1ccc2[nH]c(=S)[nH]c(=S)c2c1 | > 100 | > 100 | > 100 | > 100 | > 100 | > 100 |  | > 100 | > 100 | > 100
13 | Cc1ccc(C2SCC(=O)N2c2ccc(-n3c(-c4ccccc4)nc4ccccc4c3=O)cc2)cc1 (stereo unspecified) | > 100 | 64.4 | 73 | > 100 | 59.1 | > 100 | 54.7 | 77.9 | > 100 | 40.5
14 | O=C1Nc2cccc(Cl)c2/C1=C\c1c(Cl)nc2n1CCS2 | > 100 | > 100 | > 100 | > 100 | > 100 | > 100 | > 100 | > 100 | > 100 | > 100
15 | N#CC1C(=S)NC(c2ccccc2)=CC12CCCCC2 (stereo unspecified) | > 100 | 52.1 | 43.2 | > 100 | 72.1 | 42.4 | 35.7 | > 100 | 54.9 | 
16 | O=C(O)CCCc1nc2c(n1Cc1ccccc1)C(=O)c1ccccc1C2=O | > 100 | 88.3 | 47 | > 100 | > 100 | > 100 |  | > 100 | > 100 | > 100
17 | CCOC(=O)Nc1[nH]cc(-c2ccccc2)c1C#N | > 100 | > 100 | > 100 | > 100 | > 100 | > 100 |  | > 100 | > 100 | > 100
18 | C=CCc1cccc2cc(C(=O)NCc3ccccc3)c(=N)oc12 | > 100 | > 100 | 40.4 | > 100 |  | > 100 | > 100 | 63.8 |  | > 100
19 | Cc1ccc(/C=N/Nc2cc(C)c3cccc(C)c3n2)s1 |  |  | 33.1 | 64.2 | 38.7 | 18 | 20.8 | 41.6 | > 100 | 33.5
20 | CC1(C)[C@@H](Cn2ccc(=O)[nH]c2=O)CC[C@@]1(C)CO | > 100 |  |  | > 100 | > 100 |  |  | > 100 | > 100 | > 100
21 | Cc1n(Cc2ccccc2)c2c([n+]1C)C(=O)c1ccccc1C2=O | 1.66 |  | 0.0577 | 0.143 | 20.9 | 0.079 | 0.234 | 2.14 | 1.67 | 1.65
22 | O=c1[nH]cnc2c1cnn2Cc1cn(CCCCO)nn1 | > 100 |  | > 100 | > 100 | > 100 | > 100 | > 100 | > 100 | > 100 | > 100
23 | COC(=O)/C=C(\C(=O)OC)C1C(=O)Oc2c(C)c(=O)c3ccccc3n21 (stereo unspecified) | > 100 | > 100 | > 100 | > 100 |  | > 100 | > 100 | > 100 | > 100 | > 100
24 | COC(=O)c1ccc(/C=C/c2cc(O)ccc2O)cc1 | 4.38 | 1.06 | 5.64 | 8.41 | 3.67 | 21.8 | 3.49 | > 100 | 45.3 | 

Row | SMILES | TGI (K-562 leukemia) [µM] | TGI (HL-60(TB) leukemia) [µM] | TGI (MALME-3M melanoma) [µM] | TGI (SF-268 CNS) [µM] | TGI (UO-31 renal) [µM] | TGI (MCF7 breast) [µM] | TGI (BT-549 breast) [µM] | TGI (HS 578T breast) [µM] | TGI (TK-10 renal) [µM] | TGI (SK-OV-3 ovarian) [µM]
25 | O=C1COc2cccnc2N1CCCCO |  | > 100 |  |  | > 100 | > 100 | > 100 | > 100 | > 100 | > 100
26 | C/C=C/C(CC(O)(C(F)(F)F)C(F)(F)F)=N/NC(N)=S | > 10 | > 10 | > 10 | > 10 |  | > 10 | > 10 | > 10 | > 10 | > 10
27 | COc1cccc(C(=O)Oc2ccc(OS(=O)(=O)c3ccc(C)cc3)cc2)c1C#N | > 100 | > 100 | > 100 | > 100 | > 100 | > 100 |  | > 100 | > 100 | 
28 | CCCNC(=O)NNC(=O)c1c[nH]c2nc(C)ccc2c1=O | > 100 | > 100 | > 100 | > 100 | > 100 | > 100 | > 100 | > 100 | > 100 | 
29 | CC1=NN(c2nc(N)nc(/C(C#N)=C\c3ccc([N+](=O)[O-])s3)n2)C(C)(C)C1 | 0.355 |  | 3.87 | > 100 | 0.278 | 0.375 | 2.44 | > 100 | 1.26 | 49.3
30 | C[C@H]1[C@H]2[C@H]3CC[C@@H]4[C@@]5(C)CC[C@H](O)C(C)(C)[C@@H]5CC[C@@]4(C)[C@]3(C)C[C@H](O)[C@@]2(C)C[C@H]2O[C@]21C |  | > 100 | 39.6 | 36.7 |  | 42.3 | 41.5 | 61 | 41.5 | 39.3
31 | CC1(C)C(C#N)C1C1=C(N2CCOCC2)[C@]2(C)C(OC(=O)c3ccccc3)CC[C@@H]2C1 (stereo partly specified) | > 100 |  | > 100 | > 100 | > 100 | > 100 | > 100 | > 100 | > 100 | > 100
32 | C=CCCON(C(=O)OC(C)(C)C)C(C)(C)C | > 100 | > 100 | > 100 | > 100 | > 100 |  | > 100 | > 100 | > 100 | > 100
33 | CC(=O)Nc1ccc(N=Nc2c(O)c(S(=O)(=O)O)cc3cc(S(=O)(=O)O)ccc23)cc1 | > 100 |  | > 100 | > 100 | > 100 |  | > 100 | > 100 | > 100 | > 100
34 | Nc1ccc2c(c1)C(=O)N1CCC[C@H]1C(=O)N2 | > 100 |  | > 100 | > 100 | > 100 | > 100 | > 100 |  | > 100 | > 100
35 | BrC1=C(Br)C2(SCCS2)[C@H]2C[C@@H]1c1ccccc12 | > 100 | > 100 | > 100 | > 100 | > 62.3 | > 100 | > 100 |  | > 100 | > 100
36 | N#C[C@H](c1ccccn1)c1nc2ccccc2nc1Cl |  | > 100 | > 100 |  | > 100 | > 100 | > 100 | > 100 |  | > 100
37 | CC(=O)N=C1N(/C=C2\C(=O)Oc3ccccc3C2=O)C(=O)/C(=C/c2cccc(Cl)c2Cl)N1C | 63.3 | > 100 | > 100 | > 100 |  | > 100 | 75.3 | 26.1 |  | 39.4
38 | CCCC(=O)NC(NC1CCCCC1)(C(=O)OCC)C(F)(F)F (stereo unspecified) | > 100 | > 100 | > 100 | > 100 | > 100 | > 100 |  | > 100 | > 100 | > 100
39 | COc1ccc(C2SC(N)=Nc3c2c(C)nn3C(=O)c2ccncc2)cc1OC (stereo unspecified) | > 10 | > 10 | > 10 | > 10 |  | > 10 | > 10 | > 10 | > 10 | > 10
40 | Cc1c(C)c2c(c(N)c1C#N)C(=O)N(NC(=O)c1ccccc1)C2=O | > 100 | > 100 | > 100 | > 100 | > 100 | > 100 | > 100 | > 100 | > 100 | 
41 | O=C(/C=C/c1ccccc1)Oc1cccc(O)c1 |  | 41.2 | > 100 | 62.6 | > 100 | > 100 | > 100 | > 100 | > 100 | > 100
42 | COC[C@@H](N=CC(C)(C)C)C(C)C | > 100 | > 100 | > 100 | > 100 | > 100 | > 100 |  | > 100 | > 100 | > 100
43 | [N-]=[N+]=Nc1c([N+](=O)[O-])c(=O)n(-c2ccccc2)c2ccccc12 | 64.8 |  | 35 | 59.6 | 32.2 | 67 |  | 72.1 | 44.2 | > 100
44 | C[n+]1c2ccc(Cl)cc2nc2cc(-c3ccccc3)ccc21 | 66.8 | 10.7 | 40.4 | 35.5 | 48.7 | 4.52 | 25.5 | 65 | 43.2 | 
45 | CCCCCCNc1n[nH]c(=O)c2c1nnn2Cc1ccccc1 | > 100 | > 100 | > 100 |  | > 100 | > 100 | > 100 |  | > 100 | 
46 | O=C(O)C(O)C(O)C(O)C(O)c1nc2ccccc2s1 (stereo unspecified) |  | 46 | 36.7 | 29 | 30.1 | 33.1 | 63.2 | 60.2 | 29.3 | 34.4
47 | NC(N)=NCCN1CC2CCC(CC2)C1 |  |  | > 100 | > 100 | > 100 |  |  | > 100 | > 100 | > 100
